Reference: US6399634B1, “Benzothiophene compounds, compositions, and methods” (Eli Lilly and Company, priority 1994, dated 2002)
Several values for one entry are separate records, joined by “and”; a condition that tells them apart may be missing. Equal entries are not always repeated. Structures can show the parent of a compound that is named as a salt.

Legend:
[1] = test system: ovariectomized (OVX) rats; experiment: Uterine wet weight in ovariectomized rat post-menopausal model, 4 days of dosing; assay type: in vivo, Sprague Dawley rats; settings: oral; for Uterine Weight (% increase vs. OVX): daily for 4 days
Description: In the examples illustrating the methods, a post-menopausal model was used in which effects of different treatments upon circulating lipids were determined.
(§1) Seventy-five day old female Sprague Dawley rats (weight range of 200 to 225 g) were obtained from Charles River Laboratories (Portage, Mich.). The animals were either bilaterally ovariectomized (OVX) or exposed to a Sham surgical procedure at Charles River Laboratories, and then shipped after one week. Upon arrival, they were housed in metal hanging cages in groups of 3 or 4 per cage and had ad libitum access to food (calcium content approximately 0.5%) and water for one week. Room temperature was maintained at 22.2°±1.7° C. with a minimum relative humidity of 40%. The photoperiod in the room was 12 hours light and 12 hours dark.
(§2) Dosing Regimen Tissue Collection. After a one week acclimation period (therefore, two weeks post-OVX) daily dosing with test compound was initiated. 17α-ethynyl estradiol or the test compound were given orally, unless otherwise stated, as a suspension in 1% carboxymethylcellulose or dissolved in 20% cyclodextrin. Animals were dosed daily for 4 days. Following the dosing regimen, animals were weighed and anesthetized with a ketamine: Xylazine (2:1, V:V) mixture and a blood sample was collected by cardiac puncture. The animals were then sacrificed by asphyxiation with CO2, the uterus was removed through a midline incision, and a wet uterine weight was determined.

[2] = test system: ovariectomized (OVX) rats; experiment: Osteoporosis Test Procedure: femur bone density in OVX rats after 35 days of dosing; assay type: in vivo, Sprague Dawley rats; settings: for Bone Density: mean ± SEM
Text: Seventy-five day old female Sprague Dawley rats (weight range of 200 to 225 g) were obtained from Charles River Laboratories (Portage, Mich.). The animals were either bilaterally ovariectomized (OVX) or exposed to a Sham surgical procedure at Charles River Laboratories, and then shipped after one week. Upon arrival, they were housed in metal hanging cages in groups of 3 or 4 per cage and had ad libitum access to food (calcium content approximately 0.5%) and water for one week. Room temperature was maintained at 22.2°±1.7° C. with a minimum relative humidity of 40%. The photoperiod in the room was 12 hours light and 12 hours dark. Following the General Preparation Procedure, infra, the rats were treated daily for 35 days (6 rats per treatment group) and sacrificed by decapitation on the 36th day. The 35 day time period was sufficient to allow maximal reduction in bone density, measured as described herein. At the time of sacrifice, the uteri were removed, dissected free of extraneous tissue, and the fluid contents were expelled before determination of wet weight in order to confirm estrogen deficiency associated with complete ovariectomy. […] The uteri were then placed in 10% neutral buffered formalin to allow for subsequent histological analysis. The right femurs were excised and scanned at the distal metaphysis 1 mm from the patellar groove with single photon absorptiometry. Results of the densitometer measurements represent a calculation of bone density as a function of the bone mineral content and bone width. In accordance with the above procedures, compounds of the present invention and ethynyl estradiol (EE2) in 20% hydroxypropyl β-cyclodextrin were orally administered to test animals. Data presented in Tables 5 and 6 below are the results of these treatments compared to intact and ovariectomized test animals. Results are reported as the mean±the standard error of the mean.

[3] = test system: MCF-7 breast adenocarcinoma cells; experiment: MCF-7 Proliferation Assay (tritiated thymidine); assay type: cell-based; settings: Homo sapiens, MCF7; MCF-7 cells, 48 hours with drug, tritiated thymidine pulse 4 hours
Description: MCF-7 breast adenocarcinoma cells (ATCC HTB 22) were maintained in MEM (minimal essential medium, phenol red-free, Sigma, St. Louis, Mo.) supplimented with 10% fetal bovine serum (FBS) (V/V), L-glutamine (2 mM), sodium pyruvate (1 mM), HEPES {(N-[2-hydroxyethyl]piperazine-N′-[2-ethanesulfonic acid]10 mM}, non-essential amino acids and bovine insulin (1 ug/mL) (maintenance medium). Ten days prior to assay, MCF-7 cells were switched to maintenance medium supplemented with 10% dextrancoated charcoal stripped fetal bovine serum (DCC-FBS) assay medium) in place of 10% FBS to deplete internal stores of steroids. MCF-7 cells were removed from maintenance flasks using cell dissociation medium (Ca++/Mg++ free HBSS (phenol red-free) supplemented with 10 mM HEPES and 2 mM EDTA). Cells were washed twice with assay medium and adjusted to 80,000 cells/mL. Approximately 100 μL (8,000 cells) were added to flat-bottom microculture wells (Costar 3596) and incubated at 37° C. in a 5% CO2 humidified incubator for 48 hours to allow for cell adherence and equilibration after transfer. Serial dilutions of drugs or DMSO as a diluent control were prepared in assay medium and 50 μL transferred to triplicate microcultures followed by 50 μL assay medium for a final volume of 200 μL. After an additional 48 hours at 37° C. in a 5% CO2 humidified incubator, microcultures were pulsed with tritiated thymidine (1 uCi/well) for 4 hours. Cultures were terminated by freezing at −70° C. for 24 hours followed by thawing and harvesting of microcultures using a Skatron Semiautomatic Cell Harvester. Samples were counted by liquid scintillation using a Wallac BetaPlace β counter. Results in Table 7 below show the IC50 for certain compounds of the present invention.

[4] = test system: ovariectomized (OVX) rats; experiment: Serum cholesterol analysis in ovariectomized rats, 4 days of dosing; assay type: in vivo, Sprague Dawley rats; settings: oral; for Serum Cholesterol (% decrease vs. OVX): daily for 4 days
Text: as §1, §2
Cholesterol Analysis. Blood samples were allowed to clot at room temperature for 2 hours, and serum was obtained following centrifugation for 10 minutes at 3000 rpm. Serum cholesterol was determined using a Boehringer Mannheim Diagnostics high performance cholesterol assay. Briefly the cholesterol was oxidized to cholest-4-en-3-one and hydrogen peroxide. The hydrogen peroxide was then reacted with phenol and 4-aminophenazone in the presence of peroxidase to produce a p-quinone imine dye, which was read spectrophotemetrically at 500 nm. Cholesterol concentration was then calculated against a standard curve. The entire assay was automated using a Biomek Automated Workstation.

[5] = test system: Uterine Eosinophil Peroxidase (EPO); experiment: Uterine Eosinophil Peroxidase (EPO) Assay on uteri of dosed OVX rats; assay type: in vivo, Sprague Dawley rats; set-up: unit not given here
Text: as §1, §2
Uterine Eosinophil Peroxidase (EPO) Assay. Uteri were kept at 4° C. until time of enzymatic analysis. The uteri were then homogenized in 50 volumes of 50 mM Tris buffer (pH−8.0) containing 0.005% Triton X-100. Upon addition of 0.01% hydrogen peroxide and 10 mM o-phenylenediamine (final concentrations) in Tris buffer, increase in absorbance was monitored for one minute at 450 nm. The presence of eosonophils in the uterus is an indication of estrogenic activity of a compound. The maximal velocity of a 15 second interval was determined over the initial, linear portion of the reaction curve.

[6] = Table 5, oral, 0.01 mg/kg, OVX control 26.18, intact control 70.22, * P <= 0.05
[7] = Table 5, oral, 0.1 mg/kg, OVX control 26.18, intact control 70.22, * P <= 0.05
[8] = female, Sprague Dawley, rat, in vivo, po, 0.1 mg/kg, 4 days
[9] = female, Sprague Dawley, rat, in vivo, po, 1 mg/kg, 4 days
[10] = female, Sprague Dawley, rat, in vivo, po, 10 mg/kg, 4 days

Uterine Weight (% increase vs. OVX) ([1]; dose 0.1 mg/kg)	Uterine Weight (% increase vs. OVX) ([1]; dose 1.0 mg/kg) [%]	Uterine Weight (% increase vs. OVX) ([1]; dose 10.0 mg/kg) [%]	IC50 [3] [nM]	Uterine EPO (V. max) [5, 8]	Uterine EPO (V. max) [5, 9]	Uterine EPO (V. max) [5, 10]	SMILES	Serum Cholesterol (% decrease vs. OVX) ([4]; dose 0.1 mg/kg)	Serum Cholesterol (% decrease vs. OVX) ([4]; dose 1.0 mg/kg) [%]	Serum Cholesterol (% decrease vs. OVX) ([4]; dose 10.0 mg/kg) [%]	other results
−22.7%	−32.4	−25.2	0.01	3.1	3.0	2.8	CC(C)(C)C(=O)Oc1ccc(-c2sc3cc(OC(=O)C(C)(C)C)ccc3c2Cc2ccc(OCCN3CCCCC3)cc2)cc1 [(q)-Ex17, [6-{1,1,1-Trimethylacetyloxy}-2-(4-{1,1,1-Trimethylacetyloxy}Phenyl)Benzo[B]Thien-3-Yl][4-[2-(1-Piperidinyl)Ethoxy]Phenyl]Methane Hydrochloride]	55.8%	56.8	58.8	Bone Density [2, 6]: 17.63 ± 2.94 mg/cm/cm; Bone Density [2, 7]: 24.77 ± 4.65 mg/cm/cm; Bone Density ([2]; Table 6, oral, 0.01 mg/kg, OVX control 32.46, intact control 81.27, * P <= 0.05): 36.44 ± 44 mg/cm/cm; Bone Density ([2]; Table 6, oral, 1.0 mg/kg, OVX control 32.46, intact control 81.27, * P <= 0.05): 36.07 ± 4.20 mg/cm/cm
−13.5%	−13.7	−24.6	50	5.8	5.4	6.2	COc1ccc(-c2sc3cc(OC)ccc3c2Cc2ccc(OCCN3CCCCC3)cc2)cc1 [(p)-Ex16, [6-Methoxy-2-(4-Methoxyphenyl)Benzo[B]Thien-3-Yl][4-[2-(1-Piperidinyl)Ethoxy]Phenyl]Methane Hydrochloride]	26.8%	59.4	72.3	Bone Density [2, 6]: 26.78 ± 4.98 mg/cm/cm; Bone Density [2, 7]: 43.30 ± 7.86 mg/cm/cm; Bone Density ([2]; Table 5, oral, 1.0 mg/kg, OVX control 26.18, intact control 70.22, * P <= 0.05): 33.62 ± 5.87 mg/cm/cm
111.5% and 178.3%	–	–	–	–	–	–	C#C[C@]1(O)CC[C@H]2[C@@H]3CCc4cc(O)ccc4[C@H]3CC[C@@]21C [EE2, 17α-ethynyl estradiol, reference compound]	89.5% and 91.8%	–	–	Effect on uterine weight compared to ovariectomized test animals (in words) ([1]; EE2 at 0.1 mg/Kg/day): substantially greater than the uterine weight of ovariectomized test animals; Bone Density ([2]; Table 5, oral, 100 μg/kg, OVX control 26.18, intact control 70.22, * P <= 0.05): 47.94 ± 3.71 mg/cm/cm; Bone Density ([2]; Table 6, oral, 100 μg/kg, OVX control 32.46, intact control 81.27, * P <= 0.05): 47.31 ± 6.42 mg/cm/cm; Prevention of femur bone loss caused by ovariectomy (in words) ([2]; oral): prevented this loss; Effect on serum cholesterol compared to ovariectomized control animals (in words) ([4]; EE2 at 0.1 mg/Kg/day): decrease in serum cholesterol; Uterine EPO (V. max) ([5]; OVX rats, oral, daily for 4 days, dose 0.1 mg/kg): 246.0 and 173.3
52.2%	39.1	45.6	–	7.4	4.7	14.5	Oc1ccc(-c2sc3cc(O)ccc3c2C(O)c2ccc(OCCN3CCCCC3)cc2)cc1 (centres unmarked) [(b)-Ex2, [6-Hydroxy-2-(4-Hydroxyphenyl)Benzo[B]Thien-3-Yl][4-[2-(1-Piperidinyl)Ethoxy]Phenyl]Methanol]	22.2%	43.5	61.6	–
4.0%	23.1	5.2	–	7.3	4.8	5.5	Oc1ccc(-c2sc3cc(O)ccc3c2Cc2ccc(OCCN3CCCCC3)cc2)cc1 [(k)-Ex11, [6-Hydroxy-2-(4-Hydroxyphenyl)Benzo[B]Thien-3-Yl][4-[2-(1-Piperidinyl)Ethoxy]Phenyl]Methane Hydrochloride]	43.7%	63.0	60.7	–
–	–	–	1	–	–	–	C[C@]12CC[C@@H]3c4ccc(O)cc4CC[C@H]3[C@@H]1CCC2=O [Estrone, reference compound]	–	–	–	–
−19.6%	−28.7	−26.6	0.01	1.8	2.6	2.3	O=C(Oc1ccc(-c2sc3cc(OC(=O)c4ccccc4)ccc3c2Cc2ccc(OCCN3CCCCC3)cc2)cc1)c1ccccc1 [(s)-Ex21, [6-Benzoyloxy-2-(4-Benzoyloxyphenyl)Benzo[B]Thien-3-Yl][4-[2-{1-Piperidinyl}Ethoxy]Phenyl]Methane]	66.2%	63.4	64.4	–
−16.6%	−18.4	−19.5	1000	1.8	3.5	2.8	CCCCS(=O)(=O)Oc1ccc(-c2sc3cc(OS(=O)(=O)CCCC)ccc3c2Cc2ccc(OCCN3CCCCC3)cc2)cc1 [(r)-Ex18, [6-{n-Butylsulfonoyloxy}-2-(4-{n-Butylsulfonoyloxy}Phenyl)Benzo[B]Thien-3-Yl][4-[2-(1-Piperidinyl)Ethoxy]Phenyl]Methane Hydrochloride]	65.4%	67.0	67.9	–
